Results taken from a melting point compilation (Tetko et al.; mined from patent text by program, amines drawn as free bases though some values may be those of a salt).

melting point [°C]	SMILES
237 to 239	O=C1c2cnc3[nH]ncc3c2C(=O)N1CCc1ccccc1
254 to 255	O=C1OCc2c(c3cc(-c4ccc(-c5ccccc5)cc4)ccc3n2Cc2ccccc2)C1=O
164 to 165	O=C(Nc1nc(C(F)(F)C(F)(F)F)c(CO)s1)c1cc(C(F)(F)F)cc(C(F)(F)F)c1
136 to 139	Cc1nn(C)c2c1c1oc(=O)c(Sc3ccccc3)c(O)c1c(=O)n2-c1ccc(OC(F)(F)F)cc1
126 to 128	O=C(O)c1ccc(OC(F)F)c(OC2CCCC2)c1
111 to 113	Cc1c(Br)ccc(N)c1C#N
158 to 160	Nc1nc2c(s1)CN(C(=S)NC(=O)c1ccccc1)CC2
155 to 156	CCCC(CCC)(CC(=O)Nc1cccc(OCc2ccc3ccc(F)cc3n2)c1)C(=O)O
124 to 125	CCc1c(C)n(C)c(=O)n(-c2cc(OC(C)C)c(Cl)cc2F)c1=O
108 to 110	OC1Cc2cc(Br)ccc2Sc2ccccc21 (centres undefined)
124	CC(C)(C)OC(=O)NCC(=O)OCCCNc1ccc(O)c2c1C(=O)c1ccccc1C2=O
165 to 167	CC(C)C[C@H](NC(=O)c1ccc2c(c1)Nc1ccccc1S2)C(=O)N[C@H]1CCOC1OC(=O)N1CCOCC1 (some centres undefined)
185 to 188	CC(=O)Nc1c(C(=O)c2ccccc2)[nH]c2c(Cl)cccc12
141 to 143	CC(C)(C)NC(=O)[C@@H]1C[C@H](Cl)CN1C(=O)[C@@H](O)[C@H](Cc1ccccc1)NC(=O)[C@H](CC(N)=O)NC(=O)c1cc2cc(F)ccc2[nH]1
123 to 125	O=[N+]([O-])c1ccc(Sc2nccn2-c2ccccc2)cc1
60 to 61	COC(=O)C(OC(C(=O)OC)C(=O)OC)C(=O)OC
141 to 142	O=C(O)CCOCCCc1cccc(-c2nc(=O)c3ccccc3s2)n1
192 to 194	Cc1cc(C(=O)Nc2ccccc2O)cc(Cl)c1O
92.5 to 94.5	O=C(Cl)c1ccc(OCc2ccccc2)c(OCc2ccccc2)c1
148 to 151	NC(=O)c1cccc(-c2cccc(O)c2)c1
193 to 195	COc1cc(C(=O)CS(C)(=O)=O)cc(OC)c1NC(C)=O
240 to 243	COc1cc(OC)c2c3c(C(N)=O)cccc3n(Cc3ccccc3)c2c1
147 to 148	Cc1ccc(CSc2nc3cc4c(cc3[nH]2)OC(C)O4)nc1
124 to 126	Cc1ccc([C@H](CC(=O)O)NC(=O)Nc2c(OCc3ccccc3)cc(C)n(Cc3ccccc3)c2=O)cc1
133	CCCN(CCC)C(=O)CCCN1CC[C@H](CNC(=O)c2ccc(N)cc2OC)[C@H](OC)C1 (relative stereo)

melting point [°C]	SMILES
261	Nc1ccc(NC(=O)c2ccc(C(=O)Nc3ccc(N)cc3Cl)cc2)c(Cl)c1
124 to 125	COc1ccc2cc(Br)ccc2c1C(=O)N(C)C
195 to 198	O=Cc1cnn(-c2ccc(C(F)(F)F)cc2[N+](=O)[O-])c1Br
158 to 161	COc1cc(OC)nc(Nc2ccc(C)cc2[N+](=O)[O-])n1
165 to 166	O=C1c2ccccc2COc2ccc(O)cc21
95 to 102	CCCCCCCCCCCCc1cn(C(C(=O)Nc2c(OC)cc(OC)cc2OC)c2ccccc2)cn1 (centres undefined)
50 to 52	CCCCCCCCCCCCCCCCCCNC(=O)CC[Si](OCC)(OCC)OCC
167 to 169	Cc1ccc(C(=O)Nc2ccc(N3CCN(Cc4cccc(C#N)c4)CC3)cc2)c(-c2ccc(C(C)C)cc2)c1
171 to 172	COC(=O)Nc1ccc(N)c([N+](=O)[O-])c1
220 to 222	CCOC(=O)c1cc(=O)c2c(OCCOc3ccc(NC(C)=O)cc3)cccc2o1
133 to 135	Cc1ccc(CC2CCN(C(=O)CNc3ccc(NS(C)(=O)=O)cc3)CC2)cc1
173 to 175	CCOC(=O)c1nn(-c2ccc(OC)cc2)c2c1CCN(c1ccc(I)cc1)C2=O
148 to 150	O=C(Oc1ccc([N+](=O)[O-])cc1)c1ccnc(F)c1
162 to 164	COc1ccc(-c2nc(Sc3ccc(C(C)(C)C)cc3)n(C3CCCCO3)c2-c2ccc(OC)cc2)cc1 (centres undefined)
126 to 127	CCCc1nn(-c2ccc(C(F)(F)F)cn2)cc1CCCOc1ccc(CCC(=O)O)cc1OC
251 to 252	CCn1cc(C(=O)O)c(=O)c2cc(F)c(-n3cccc3)cc21
109 to 110	CCN(CC)CCCNC(=S)N1CC(Oc2ccc(C(F)(F)F)cc2)C1
98 to 100	CC[C@H](C)[C@H](NC(=O)O[C@@H](CC(C)C)C(=O)OCc1ccccc1)C(=O)NC1CCCCC1
238 to 241	O=[N+]([O-])c1ccc(Oc2cccc3c(Oc4ccc([N+](=O)[O-])c(O)c4)cccc23)cc1O
74 to 75	CCOC(=O)c1cnoc1-c1ccc(Cl)s1
144 to 145	Cn1nc(C#N)c(Nc2ccccc2[N+](=O)[O-])n1
175	CC(=O)N1c2cc(C)c(S(=O)(=O)C[N+](=O)[O-])c(C)c2CC1C (centres undefined)
87 to 89	CCON=C(C(C)=NOCc1ccccc1C(=COC)C(=O)OC)c1ccc(Oc2ccc(Cl)cc2)cc1
152 to 157	O=C(O)c1c(SCCO)c(SCCO)c(SCCO)c(SCCO)c1C(O)=NCCO
183 to 184	CC(C)C#CC1(C(F)(F)F)OCC(=O)Nc2ccc(Cl)cc21 (centres undefined)

melting point [°C]	SMILES
90 to 91	CNC(=C[N+](=O)[O-])NCCCCc1ccccn1
70 to 72	CCCc1cc(CCC)c2oc(Cc3ccc(OC)cc3)c(C)c2c1O
173 to 175	O=C(NS(=O)(=O)c1ccccc1)c1cccc2nnsc12
66 to 68	N#CN=C(NCCSCc1nccs1)NCCSCc1nccs1
96	Cn1c2ccccc2c2cc(CO)ccc21
264	O=C1C2=C(SCCO2)C(=O)N1c1ccc2ccc(Cl)nc2n1
50 to 51	CCc1nn(C)c(N)c1Cl
240 to 242	O=C(O)c1cc2c(s1)-c1cc(F)ccc1CC2
71.2	CC(C)C(c1cnccc1C(F)(F)F)N(C)C(=O)Cc1ccccc1 (centres undefined)
180 to 184	COc1cc(/C=C/CNc2cccc(-c3ccnc4c(C(=O)c5cccs5)cnn34)c2)ccc1O
239 to 242	CS(=O)(=O)c1ccc(-c2cnn(-c3ccoc3)c(=O)c2-c2ccc(F)cc2)cc1
270 to 272	NC(=O)c1cccc2nnsc12
99 to 100	Cc1c(-c2c[nH]cc2C#N)cccc1C(F)(F)F
149 to 150	CC1(C)CCC(C)(C)c2cc(C(C)(O)C(=O)O)ccc21 (centres undefined)
186 to 189	CC1(C)NC(=O)N(CC(CS(=O)(=O)c2ccc(-c3cccc(CC#N)c3)cc2)N(O)C=O)C1=O (centres undefined)
57 to 58	O=Cc1c(F)cc(Br)cc1Br
170 to 176	COc1c(C)c2c(c(NS(C)(=O)=O)c1C/C=C(\C)CCC(=O)O)C(=O)OC2
228 to 230	CCCCc1nc2c(N)nc3cccnc3c2n1CCNC(C)=O
91	CCCCCCCCCCCCCc1nnc(C=Cc2ncc([N+](=O)[O-])n2C)s1
132 to 133	N#Cc1cn(CCl)cc1-c1cccc(Cl)c1Cl
130	CCOC(=O)c1ccc(OCC(=NO)c2ccc3c(c2)C(C)(C)CCC3(C)C)cc1O
151 to 152	COc1ccc(OCc2ccccc2)c2c1CN(Nc1ccncc1)CC2
110	CCCCC(=O)NC(C(=O)OCC)=C(N)SCC
266	CC(C)n1cc(-c2nc(C(N)=O)c(N)nc2-c2cccc(OC(F)(F)F)c2)ccc1=O
157 to 158	O=C(O)c1cnn(-c2ccc(C(F)(F)F)cc2)c1C(F)(F)F

melting point [°C]	SMILES
69 to 70	Nc1ccc(CCc2cscn2)cc1
228	c1ccn(Nc2ccc(N3CCOCC3)nn2)c1
228 to 230	CCN1C(=O)COc2ccc(-c3sc(N)nc3-c3cccc(C)n3)cc21
64 to 66	COc1ccc2c(c1)CC(COS(=O)(=O)c1ccc(C)cc1)CC2 (centres undefined)
104 to 106	O=c1cc(C(F)(F)F)c2ccc(NCCc3ccccc3)nc2o1
152 to 153	Cc1ccccc1NC(=NC#N)NC(NC(=O)Cc1ccc2c(c1)OCO2)C(C)(C)C (centres undefined)
210 to 214	O=C(O)c1ccccc1C(=O)N1Cc2cccn2Cc2ccccc21
165 to 166	CCCCCCCCc1sc(NC(=O)C2(C)Cc3cc(C)ccc3N2Cc2cccc(C(=O)OC)c2)nc1-c1cc(OC)c(Cl)cc1OC (centres undefined)
175 to 176	Nc1ccccc1-c1[nH]ncc1[N+](=O)[O-]
115 to 117	CCCN(CCC)C(=O)CNc1nc(-c2ccccc2)nc(C(F)(F)F)c1Cl
136 to 140	Cc1ccccc1C(=O)Nc1ccc(C(=O)N2CCCC(O)(CO)c3ccccc32)cc1 (centres undefined)
48	CCCCCCCCCCNC(=O)CCCOCCO
250 to 252	CC(=O)Nc1nc(N)nnc1-c1cccc(Cl)c1Cl
121 to 122	C=C(C)COc1ccc(F)cc1CN(CC)c1ccc(C(=O)O)nn1
61 to 63	O=C1c2ccccc2C(=O)N1CCCCc1ccco1
238 to 239	NS(=O)(=O)c1ccc(-n2nc(C(F)F)cc2-c2nc3cccc(Cl)c3s2)cc1
141	CS(=O)c1nnc(-c2cc(C(C)(C)C)c(O)c(C(C)(C)C)c2)s1 (centres undefined)
224	CC1(C)CCC(C)(C)c2cc(C(=O)Nc3ccc(I)cc3)ccc21
108 to 109	CC(=O)C(=O)c1ccc(NS(C)(=O)=O)c(Sc2ccc(F)cc2F)c1
202 to 203	CN(C)C(=O)c1c(-c2ccccc2)oc2c(CCl)cccc2c1=O
54 to 55	CCOC(=O)CCC(=O)c1ccc(C2CCCCC2)cc1
90 to 91	CON=C(c1cnco1)c1ccccc1COc1cc(C)ccc1C

SMILES	melting point [°C]
COC1CSC2=C(SC1)C(OC(=O)N1CCN(C)CC1)N(c1ccc(Cl)cn1)C2=O (centres undefined)	197
CC(C)N(C(=O)CN1C(=O)CC(=O)N(c2ccccc2)c2ccccc21)c1ccc(C(F)(F)F)cc1	186 to 188
